Three compounds from US5294611A, “Angiotensin II receptor blocking 2,3,6 substituted quinazolinones” (American Cyanamid Company, priority 1993, dated 1994) can be followed below.

The target of one test is T1, Angiotensin II Receptor (Bos taurus, UniProt P25104).
T1 construct: The brownish tissue forming the adrenal cortex is scraped off and finely minced with scissors before homogenization; tissue local slaughter house (maxwell-Cohen); host or cells: beef adrenal cortex, 100,000 x g microsomal membranes
T1 sequence (P25104 1-359): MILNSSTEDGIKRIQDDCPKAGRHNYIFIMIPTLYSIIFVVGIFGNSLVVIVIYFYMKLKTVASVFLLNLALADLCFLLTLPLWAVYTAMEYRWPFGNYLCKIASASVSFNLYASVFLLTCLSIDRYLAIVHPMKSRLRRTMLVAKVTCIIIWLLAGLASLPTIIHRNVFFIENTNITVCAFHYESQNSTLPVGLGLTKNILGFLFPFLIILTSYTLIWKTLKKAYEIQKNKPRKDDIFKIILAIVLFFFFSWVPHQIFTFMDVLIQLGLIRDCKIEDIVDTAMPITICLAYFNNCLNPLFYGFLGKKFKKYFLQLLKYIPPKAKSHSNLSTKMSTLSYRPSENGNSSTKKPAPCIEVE
Briefly: Receptor Binding Assay: displacement of [^125 I](Sar^1,Ile^8)AngII from adrenal cortex microsomal membranes. More on the design: species or system beef (bovine adrenals). The text has this:
Beef adrenals are obtained from a local slaughter house (maxwell-Cohen). [^125 I](Sar^1,Ile^8)AngII, S.A. 2200 Ci/mmole, is purchased from Dupont (NEN®, Boston, Mass.). All unlabeled AngII analogs, Dimethylsulfoxide (DMSO), nucleotides, bovine serum albumin (BSA) are purchased from Sigma Chemical Co., St. Louis, Mo. U.S.A.
Approximately sixteen (16) to twenty (20) beef adrenal glands are processed as follows: fresh adrenal glands received on crushed ice are cleaned of fatty tissues and the tough membranes encapsulating the glands are removed and discarded. The brownish tissue forming the adrenal cortex is scraped off and finely minced with scissors before homogenization. Care is taken to avoid contamination with medullary tissue during dissection. The scraped cortices are suspended in twenty volumes of an ice-cold buffer medium consisting of 10 mM Tris.HCl (pH 7.4 at 22° C.) and containing 1.0 mM EDTA and 0.2M sucrose. Unless otherwise indicated, all subsequent operations are done at 4° C. […] The homogenate is centrifuged first at low speed (3,000× g) for 10 min. The resulting pellet is discarded and the supernatant fluid recentrifuged at 10,000× g for 15 minutes to give a P2 pellet. This P2 pellet is discarded and the liquid phase is carefully decanted off in clean centrifuge tubes and recentrifuged at high speed (100,000× g) for 60 min. The translucent final pellet is harvested and combined in a small volume (20-50.0 ml) of 50.0 mM Tris.HCl buffer, pH 7.2. A 100 ul aliquot is withdrawn and the protein content of the preparation is determined by the Lowry's method (Lowry, O. H., Rosebrough, N. F., Parr, A. L. and Randall, R. J., Protein measurement with Folin phenol reagent. J. Biol. Chem., 48, 265-275; 1951). The pelleted membrane is reconstituted in 50.0 mM Tris.HCl buffer containing 0.1 mM of phenylmethylsulfonyl fluoride (PMSF) to give approximately a protein concentration of 2.5 mg per ml of tissue suspension. The membrane preparation is finally aliquoted in 1.0 ml volumes and stored at -70° C. until use in the binding assays.
The binding of [^125 I](Sar^1,Ile^8)AngII to microsomal membranes is initiated by the addition of reconstituted membranes (1:10 vols.) in freshly made 50.0 mM Tris.HCl buffer, pH 7.4 containing 0.25% heat inactivated bovine serum albumin (BSA): 80 ul membrane protein (10 to 20 ug/assay) to wells already containing 100 ul of incubation buffer (as described above) and 20 ul [^125 I](Sar^1,ILE^8)AngII (Specific Activity, 2200 Ci/mmole). Non-specific binding is measured in the presence of 1.0 uM unlabeled (Sar^1,ILE^8)AngII, added in 20 ul volume. […] In competition studies, experimental compounds are diluted in dimethylsulfoxide (DMSO) and added in 20 ul to wells before the introduction of tissue membranes. […] Assays are performed in triplicate. The wells are left undisturbed for 60 min. at room temperature. Following incubation, all wells are harvested at once with a Brandel® Harvester especially designed for a 96 well plate (Brandel® Biomedical Research & Development Labs. Inc., Gaithersburg, Md., U.S.A.). The filter discs are washed with 10×1.0 ml of cold 0.9% NaCl to remove unbound ligand. […] This method is routinely used. The filters are removed from the filter grid and counted in a Parkard® Cobra Gamma Counter for 1 min. (Packard Instrument Co., Downers Grove, Ill., U.S.A.). The binding data are analyzed by the non-linear interactive "LUNDON-1" program (LUNDON SOFTWARE Inc., Cleveland, Ohio U.S.A.).

Test [1] deals with Angiotensin II (AII) vasopressor response. The test is described as follows: AII Challenge: antagonism of angiotensin II vasopressor response in conscious spontaneously hypertensive rats. In kind it is in vivo, rat (male okamoto-Aoki SHR). To be noted: 1 mg/kg I.V.; for inhibition in vivo at 1 mg/kg: Rattus norvegicus, iv; for inhibition in vivo at 1 mg/kg / Average Change: SHR n=2; for Change: single SHR. An excerpt: Conscious Male okamoto-Aoki SHR, 16-20 weeks old, weighing approximately 330 g are purchased from Charles River Labs (Wilmington, Mass.). Conscious rats are restrained in a supine position with elastic tape. The area at the base of the tail is locally anesthetized by subcutaneous infiltration with 2% procaine. […] The cannula is secured, heparinized (1,000 I.U./ml), sealed and the wound is closed. The animals are placed in plastic restraining cages in an upright position. The cannula is attached to a Statham P23Db pressure transducer, and pulsatile blood pressure is recorded to 10-15 minutes with a Gould Brush recorder. […] Angiotensin II (human sequence, Sigma Chem. Co., St. Louis, Mo.) of 0.05 and 0.1 ug/kg i.v. is injected into all rats (predosing response). Then a test compound, vehicle or a known angiotensin II antagonist is administered i.v., i.p. or orally to each set of rats. […] The vasopressor response of angiotensin II is measured for the increase in systolic blood pressure in mmHg.

The mark [2] stands for this setting: AII 0.05 mcg/kg IV, 60 min post dose.
Setting [3] is: AII 0.05 mcg/kg IV, 300 min post dose.

On to `CCCCc1nc2ccc([C@@H]3[C@@H]4C(=O)OC[C@@H]4ON3C)cc2c(=O)n1Cc1ccc(-c2ccccc2-c2nnn[nH]2)cc1` (relative stereo) [Example 54], for which the IC50 on Angiotensin II Receptor was 160 nM.
`CCCCc1nc2ccc(C3C4CCCN3OC4)cc2c(=O)n1Cc1ccc(-c2ccccc2-c2nnn[nH]2)cc1` (centres unmarked) [Example 21]: the inhibition in vivo at 1 mg/kg is 53% in test [1] (0.5 h, AII 0.05 mcg/kg IV, 30 min post dose); 53% in test [1] (0.5 h, AII 0.1 mcg/kg IV, 30 min post dose); 68% in test [1] (1 h, AII 0.05 mcg/kg IV, 60 min post dose); 56% in test [1] (1 h, AII 0.1 mcg/kg IV, 60 min post dose); 63% in test [1] (2 h, AII 0.05 mcg/kg IV, 120 min post dose); 61% in test [1] (2 h, AII 0.1 mcg/kg IV, 120 min post dose). The inhibition in vivo at 1 mg/kg in test [1] (3 h, AII 0.05 mcg/kg IV, 180 min post dose) was 63%; in test [1] (3 h, AII 0.1 mcg/kg IV, 180 min post dose) it was 47%; in test [1] (4 h, AII 0.05 mcg/kg IV, 240 min post dose), 42%; in test [1] (4 h, AII 0.1 mcg/kg IV, 240 min post dose), 61%; in test [1] (5 h, AII 0.05 mcg/kg IV, 300 min post dose), 37%; in test [1] (5 h, AII 0.1 mcg/kg IV, 300 min post dose) it was 34%. Also, the inhibition in vivo at 1 mg/kg in test [1] ([…], AII 0.05 mcg/kg IV, 90 min post dose) is 63%; in test [1] ([…], AII 0.1 mcg/kg IV, 90 min post dose) it was 52%. Also, the “Average Change” value was 22.5 mmHg in test [1] (AII 0.05 mcg/kg IV, 30 min post dose); 15 mmHg in test [1] (setting [2]); 17.5 mmHg in test [1] (AII 0.05 mcg/kg IV, 90 min post dose); 17.5 mmHg in test [1] (AII 0.05 mcg/kg IV, 120 min post dose); 17.5 mmHg in test [1] (AII 0.05 mcg/kg IV, 180 min post dose); 27.5 mmHg in test [1] (AII 0.05 mcg/kg IV, 240 min post dose). For the same compound, the “Average Change” value in test [1] (setting [3]) came out at 30 mmHg; in test [1] (AII 0.1 mcg/kg IV, 30 min post dose) it was 27 mmHg; in test [1] (AII 0.1 mcg/kg IV, 60 min post dose), 25 mmHg; in test [1] (AII 0.1 mcg/kg IV, 90 min post dose) it was 27.5 mmHg; in test [1] (AII 0.1 mcg/kg IV, 120 min post dose) it was 22.5 mmHg; in test [1] (AII 0.1 mcg/kg IV, 180 min post dose) it was 30 mmHg. For the same compound, the “Average Change” value in test [1] (AII 0.1 mcg/kg IV, 240 min post dose) stood at 22.5 mmHg; in test [1] (AII 0.1 mcg/kg IV, 300 min post dose), 37.5 mmHg. The Change in test [1] (setting [2]) is recorded as 15 mmHg; in test [1] (setting [3]), 30 mmHg.
For the compound “[^125 I](Sar^1,Ile^8) AngII [reference compound]”, the “Specific binding of radioligand” value on Angiotensin II Receptor (microsomal membranes, 60 min, room temperature) is reported as “greater than 90%”.

The term IC50 denotes the concentration that inhibits the measured activity by half. High values mean lower potency, low ones higher potency. Broadly, the inhibition in vivo is how much of the control response was suppressed. A higher inhibition in vivo goes with strong suppression.
